Laboratory results as given in paper PMC6202177 (Nature chemical biology, 2018).

What was measured:
[1] = target: peptide-deficient H2-D^d/hβ2m/TAPBPR (Mus musculus, UniProt P01900); assay: Fluorescence anisotropy competition with TAMRA-P18-I10; type: binding, murine H2-D^d, human β2m; conditions: negative control peptide, in words
[2] = target: H2-D^d/TAPBPR (MHC-I/TAPBPR) (Mus musculus, UniProt P01900); assay: Thermodynamic cycle step 4: peptide binding to MHC-I/TAPBPR; design: species or system murine H2-D^d, human β2m; conditions: Fig. 6 mechanism, in words
biotinylated TAPBPR = biotinylated TAPBPR (UniProt Q9BX59); assay: SPR
[3] = target: peptide-deficient H2-D^d/hβ2m/TAPBPR complex (murine | human | not stated); assay: fluorescence polarisation
[…]/HLA-B*15:01/hβ2m = SEC binding of TAPBPR; design: species or system human
peptide-deficient H2-D^d = assay: SEC binding of TAPBPR; design: species or system murine H2-D^d; conditions: in words
P18-I10/H2-D^d = assay: SEC binding of TAPBPR; design: species or system murine H2-D^d; conditions: fully-loaded P18-I10/H2-D^d, in words
[…]/HLA-A*01:01/hβ2m = NMR binding of TAPBPR; design: species or system human
P18-I10/H2-D^d/hβ2m [4] = assay: NMR titration and line shape analysis of TAPBPR onto P18-I10/H2-D^d/hβ2m; type: binding, murine H2-D^d, human β2m; conditions: slow exchange on the chemical shift timescale, in words
RGPGC/H2-D^d S73C = assay: SEC binding of TAPBPR; design: species or system murine H2-D^d; conditions: partially loaded RGPGC/H2-D^d S73C, in words
[…]/HLA-B*27:02/hβ2m = SEC binding of TAPBPR; design: species or system human
[5] = target: peptide-deficient H2-D^d/hβ2m/TAPBPR complex (murine | human | not stated); assay: NMR titration
P18-I10/H2-D^d/hβ2m [6] = target: P18-I10/H2-D^d/hβ2m (murine | human | HIV); assay: NMR titration

FVTI
stability and exchange in the DSF and FA assays [1]: minimal stability and exchange | affinity class of peptide [2]: low-affinity

H2-D^(d S73C)/β2m (complex)
koff (biotinylated TAPBPR): < 0.002 s⁻¹

P18-I10 peptide
K2′ [3]: 0.186 µM | Kd [3]: 0.09 µM

TAPBPR: molecular chaperone, TAP-binding protein related; luminal domain expressed in Drosophila S2 cells
TAPBPR binding (SEC) ([…]/HLA-B*15:01/hβ2m; 80 μM pMHC-I, 160 μM TAPBPR, room temperature 1 hour, HLA-B*15:01): No TAPBPR binding could be detected | koff implied if an interaction exists ([…]/HLA-B*15:01/hβ2m; HLA-B*15:01, inferred from lack of detectable binding (≫)): > 3 s⁻¹ | TAPBPR binding (SEC) (peptide-deficient H2-D^d): high-affinity complex | TAPBPR binding (SEC) (P18-I10/H2-D^d): high-affinity complex | TAPBPR binding (NMR) ([…]/HLA-A*01:01/hβ2m; 200 µM pMHC-I, two-fold molar excess TAPBPR, HLA-A*01:01): No TAPBPR binding could be detected | koff implied if an interaction exists ([…]/HLA-A*01:01/hβ2m; HLA-A*01:01, inferred from lack of detectable binding (≫)): > 3 s⁻¹ | TAPBPR binding to pMHC-I by NMR (P18-I10/H2-D^d/hβ2m [4]): tight complex | TAPBPR binding (SEC) (RGPGC/H2-D^d S73C): high-affinity complex | TAPBPR binding (SEC) ([…]/HLA-B*27:02/hβ2m; 80 μM pMHC-I, 160 μM TAPBPR, room temperature 1 hour, HLA-B*27:02): No TAPBPR binding could be detected | koff implied if an interaction exists ([…]/HLA-B*27:02/hβ2m; HLA-B*27:02, inferred from lack of detectable binding (≫)): > 3 s⁻¹

^13C labeled P18-I10 (peptide)
Kd [5]: < 7.2 µM | koff [5]: < 80 s⁻¹

B1: TAPBPR (TAP-binding protein related), luminal domain (domain or fragment)
chain: KPHPAEGQWRAVDVVLDCFLAKDGAHRGALASSEDRARASLVLKQVPVLDDGSLEDFTDFQGGTLAQDDPPIIFEASVDLVQIPQAEALLHADCSGKEVTCEISRYFLQMTETTVKTAAWFMANMQVSGGGPSISLVMKTPRVTKNEALWHPTLNLPLSPQGTVRTAVEFQVMTQTQSLSFLLGSSASLDCGFSMAPGLDLISVEWRLQHKGRGQLVYSWTAGQGQAVRKGATLEPAQLGMARDASLTLPGLTIQDEGTYICQITTSLYRAQQIIQLNIQASPKVRLSLANEALLPTLICDIAGYYPLDVVVTWTREELGGSPAQVSGASFSSLRQSVAGTYSISSSLTAEPGSAGATYTCQVTHISLEEPLGASTQVVPPERR
Kd (P18-I10/H2-D^d/hβ2m [6]): 32 µM
